The values below are quoted from earlier work in patent publication US20250178999A1, “ONE STEP SYNTHESIS OF 1-TETRALONE COMPOUNDS AND USES THEREOF IN THE PREPARATION OF (+)-TETRALONE ABSCISIC ACID (ABA)” (University of Saskatchewan, priority 2022, published 2025).

Molecules are shown by their SMILES. Where two headings read alike, the source gives them in different places.

In one data set the test system is rice seedling. Conditions: Han et al 2015.
The subject of a further data set is lettuce. Conditions: Han et al 2015.
Another data set deals with Arabidopsis. Conditions: for IC50: Vaidya et al 2019, read-out: IC50 in germination of Arabidopsis.
Data set [1] deals with ABA receptors. Conditions: Arabidopsis receptors; Vaidya et al 2019.
Data set [2] has as its system ABA receptors. To be noted: wheat receptors; Vaidya et al 2019.
A further data set relates to corn cell. To be noted: Nyangulu et al 2006.
The subject of data set [3] is corn cell suspension system. Conditions: Nyangulu et al 2006.
The conditions of data set [4]: Nyangulu et al 2006.

In the case of `CC(=C/C(=O)O)/C=C/C1(O)c2ccccc2C(=O)CC1(C)C` (racemic) [(±)-5], the “activity in rice seedling growth inhibition assay compared to racemic ABA” value in the data set on rice seedling is recorded as “higher activity than racemic ABA”. In addition, the “activity in seed germination assay in lettuce compared to racemic ABA” value in the data set on lettuce is recorded as “higher activity than racemic ABA”. Further, the “activity in seed germination assay in arabidopsis compared to racemic ABA” value with Arabidopsis (Han et al 2015) is recorded as “higher activity than racemic ABA”.
Regarding `N#Cc1c(C2CC2)cc(CC(=O)NC2(C(=O)O)CCCCC2)cc1C1CC1` [Compound 7, opabactin, reference compound], the “relative potency of 7 and (+)-5 by receptor subgroup” value with ABA receptors [1] and in the data set with ABA receptors [2] was “more the active in subgroup III” throughout. In addition, in the data set on Arabidopsis, the IC50 was 62 nM.
Turning to `CC(=C/C(=O)O)/C=C/[C@@]1(O)c2ccccc2C(=O)CC1(C)C` [(+)-5, (2Z,4E)-5-((S)-1-hydroxy-2,2-dimethyl-4-oxo-1,2,3,4-tetrahydronaphthalen-1-yl)-3-methylpenta-2,4-dienoic acid], the “relative potency of 7 and (+)-5 by receptor subgroup” value in the data set on ABA receptors [1] and with ABA receptors [2] was “more potent in subgroup II” throughout. Besides, in the data set with Arabidopsis (Nyangulu et al 2006), the “activity in seed germination inhibition assay in Arabidopsis compared to ABA” value was “higher activity than ABA”. Besides, the IC50 in the data set on Arabidopsis was 194 nM. The “activity in corn cell growth inhibition assay compared to ABA” value with corn cell is listed as “higher activity than ABA”.
For the compound `CC1=CC(=O)CC(C)(C)[C@@]1(O)/C=C/C(C)=C\C(=O)O` [(+)-1, (2Z,4E)-5-[(1S)-1-hydroxy-2,6,6-trimethyl-4-oxocyclohex-2-en-1-yl]-3-methylpenta-2,4-dienoic acid, reference compound], in the data set on Arabidopsis, the IC50 was 601 nM.
As for `CC(=C/C(=O)O)/C=C/[C@@]1(O)c2ccccc2C(=O)C[C@]1(C)CO` [Compound 8], the “metabolic fate in corn cell suspension system” value in data set [3] was “not converted to a phaseic acid-like compound”. Further, the biological activity entry in data set [4] is recorded as “retain biological activity”.
